Data published in patent US10906888B2, “Pyrimidine carboxamides as inhibitors of Vanin-1 enzyme” (Pfizer Inc., priority 2016, dated 2021).

Biological target: human vanin-1 (Homo sapiens (Human), UniProt O95497)
Assay: Human Vanin-1 Enzyme Assay 1
Format: biochemical
Settings: 25 pM human vanin-1, 50 uM pantetheine 7-amino-4-trifluoromethylcoumarin substrate
Procedure: Human Vanin-1Enzyme Assay 1.
The in vitro assay measures enzymatic cleavage of the fluorescently-labeled vanin substrate, pantetheine 7-amino-4-trifluoromethylcoumarin, by human vanin-1.
The vanin-1 protein was prepared in-house from a construct expressing the extracellular domain of human vanin-1 (GenBank ID NM_004666) preceded N-terminally by the honey bee melittin signal peptide, a GSG linker sequence, a His6× tag and a FLAG tag. The secreted, soluble enzyme was purified from the conditioned medium from a CHO cell line stably expressing the resulting protein. Enzyme purification was performed through sequential Ni NTA and size-exclusion chromatography steps.
Intermediate concentrations were prepared by diluting in DMSO in a four-fold series for a total of 11 data points.
To begin the assay 100 nL was transferred from the compound plate to the assay plate. Next, 15 μL of the vanin-1 working solution were transferred to the assay plate. The inhibitor and enzyme were incubated at room temperature for 30 minutes. The enzyme reaction was then initiated by the addition of 5 μL of 200 μM pantetheine 7-amino-4-trifluoromethylcoumarin prepared in assay buffer. […] The final concentration of DMSO was 0.5%.

human vanin-1, sequence (O95497 22-491): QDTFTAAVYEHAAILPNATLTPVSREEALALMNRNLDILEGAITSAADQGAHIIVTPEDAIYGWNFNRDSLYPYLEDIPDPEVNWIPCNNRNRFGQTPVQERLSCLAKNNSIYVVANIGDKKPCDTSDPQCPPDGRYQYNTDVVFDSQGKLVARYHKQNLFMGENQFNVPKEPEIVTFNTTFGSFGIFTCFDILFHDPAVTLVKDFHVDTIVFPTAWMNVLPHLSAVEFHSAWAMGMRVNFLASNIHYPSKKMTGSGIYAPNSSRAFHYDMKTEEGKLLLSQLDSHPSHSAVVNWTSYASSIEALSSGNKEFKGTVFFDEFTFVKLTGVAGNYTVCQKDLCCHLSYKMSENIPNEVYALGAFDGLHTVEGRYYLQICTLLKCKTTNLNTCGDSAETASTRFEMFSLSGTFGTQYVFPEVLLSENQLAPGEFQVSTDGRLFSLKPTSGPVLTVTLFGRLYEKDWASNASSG

Row | SMILES | IC50
1 | C[C@@H](Nc1ncc(C(=O)N2CC3(CCOCC3)C2)cn1)c1cnccn1 [Example 148] | 54.5 nM
2 | NC(=O)CC1CCN(C(=O)c2cnc(NCc3cccnc3)nc2)CC1 [Example 30] | 2170 nM
3 | O=C(c1cnc(NC2(c3cncnc3)CC2)nc1)N1CCC2(CCO2)CC1 [Example 34] | 47.2 nM
4 | O=C(c1cnc(NC2(c3cncnc3)CC2)nc1)N1CCC(C(O)C(F)(F)F)CC1 (stereo not drawn) [Example 60] | 2850 nM
5 | C[C@H](Nc1ncc(C(=O)N2CCN3CC(F)(F)C[C@H]3C2)cn1)c1cnccn1 [Example 118] | 4.64 nM
6 | C[C@@H]1CN(C(=O)c2cnc(NC3(c4cncnc4)CC3)nc2)C[C@H](C)C1O (stereo partly drawn) [Example 44] | 2270 nM
7 | C[C@@H](Nc1ncc(C(=O)N2CCC3(CCOCC3)C2)cn1)c1ccnnc1 [Example 154] | 337 nM
8 | O=C(c1cnc(NC2(c3cncnc3)CC2)nc1)N1CCC(C(F)(F)F)CC1 [Example 63] | 421 nM
9 | C[C@H](Nc1ncc(C(=O)N2C[C@H](O)[C@@H](N3CCOCC3)C2)cn1)c1cnccn1 [Example 113] | 508 nM
10 | O=C(c1cnc(NC2(c3cncnc3)CC2)nc1)N1CCC(C(F)(F)F)C1 (single isomer, unassigned) [Example 194] | 20.2 nM
11 | CN1CC2(COCCN(C(=O)c3cnc(NC4(c5cncnc5)CC4)nc3)C2)OC1=O (stereo not drawn) [Example 75] | 1080 nM
12 | O=C(c1cnc(NCc2cccnc2)nc1)N1[C@@H]2CC[C@H]1C[C@@H](O)C2 [Example 28] | 1550 nM
13 | CCC1(CO)CCN(C(=O)c2cnc(NC3(c4cncnc4)CC3)nc2)C1 (single isomer, unassigned) [Example 202] | 14.3 nM
14 | O=C(c1cnc(NC2(c3cncnc3)CC2)nc1)N1CCC(F)CC1 [Example 68] | 8.13 nM
15 | O=C(c1cnc(NCc2cccnc2)nc1)N1CC(O)C1 [Example 16] | 323 nM
16 | CC1COCCN(C(=O)c2cnc(NC3(c4cncnc4)CC3)nc2)C1 (stereo not drawn) [Example 38] | 62.6 nM
17 | NC(=O)[C@@H]1CCCN1C(=O)c1cnc(NCc2cccnc2)nc1 [Example 32] | 20000 nM
18 | C[C@H](Nc1ncc(C(=O)N2CCN3C[C@@H](F)C[C@H]3C2)cn1)c1cnccn1 [Example 121] | 3.95 nM
19 | CC1(C)CCN(C(=O)c2cnc(NC3(c4cncnc4)CC3)nc2)C1 [Example 191] | 1.57 nM
20 | CN1CC2CN(C(=O)c3cnc(NCc4cnccn4)nc3)CC2C1 (stereo not drawn) [Example 123] | 11400 nM
21 | O=C(c1cnc(NC2(c3cncnc3)CC2)nc1)N1C[C@H](O)C[C@H](C2CC2)C1 [Example 88] | 28.7 nM
22 | O=C(c1cnc(NCc2cnc(C(F)(F)F)nc2)nc1)N1CCC2(CCOCC2)C1 [Example 168] | 192 nM
23 | O=C(c1cnc(NC2(c3cncnc3)CC2)nc1)N1C[C@@H](F)C[C@@H]1CO [Example 48] | 20000 nM
24 | C[C@H]1CCCN1C(=O)c1cnc(NC2(c3cncnc3)CC2)nc1 [Example 47] | 29.6 nM
25 | O=C(c1cnc(NC2(c3cncnc3)CC2)nc1)N1CCC[C@H]1CO [Example 66] | 231 nM
26 | O=C(c1cnc(NCc2cnccn2)nc1)N1CCN2C[C@@H](F)C[C@H]2C1 [Example 110] | 171 nM

Row | SMILES | IC50
27 | O=C(c1cnc(NC2(c3cncnc3)CC2)nc1)N1C[C@H](O)C[C@H](C(F)(F)F)C1 [Example 89] | 35 nM
28 | O=C(Nc1ncc(C(=O)N2CCC3(CCOCC3)C2)cn1)c1cncnc1 [Example 205, N-[5-(8-oxa-2-azaspiro[4.5]dec-2-ylcarbonyl)pyrimidin-2-yl]pyrimidine-5-carboxamide] | 8800 nM
29 | O=C(c1cnc(NCc2cnccn2)nc1)N1CC[C@@H](N2CCOCC2)C1 [Example 124] | 4620 nM
30 | C[C@H]1COCCN1C(=O)c1cnc(NC2(c3cncnc3)CC2)nc1 [Example 55] | 2520 nM
31 | CS(=O)(=O)C1CCCN(C(=O)c2cnc(NC3(c4cncnc4)CC3)nc2)C1 (single isomer, unassigned) [Example 199] | 1180 nM
32 | CC1(CO)CCN(C(=O)c2cnc(NCc3cccnc3)nc2)CC1 [Example 15] | 220 nM
33 | CC(C)[C@H]1C[C@@H](O)CN(C(=O)c2cnc(NC3(c4cncnc4)CC3)nc2)C1 [Example 40] | 26.9 nM
34 | CC1CCCN(C(=O)c2cnc(NC3(c4cncnc4)CC3)nc2)C1 (stereo not drawn) [Example 39] | 9.44 nM
35 | O=C(c1cnc(NC2(c3cnccn3)COC2)nc1)N1CCC2(CCOCC2)C1 [Example 132] | 0.349 nM
36 | O=C(c1cnc(NC2(c3cncnc3)CC2)nc1)N1CC2CCC1CO2 (stereo not drawn) [Example 105] | 36 nM
37 | CO[C@H]1CCN(C(=O)c2cnc(NC3(c4cncnc4)CC3)nc2)C1 [Example 51] | 97.5 nM
38 | C[C@H]1CN(C(=O)c2cnc(NC3(c4cncnc4)CC3)nc2)CCO1 [Example 107] | 38.6 nM
39 | Cc1ncc(C(C)Nc2ncc(C(=O)N3CC4(CCOCC4)C3)cn2)cn1 (stereo not drawn) [Example 160] | 2.84 nM
40 | O=C(c1cnc(NC2(c3cnccn3)CCC2)nc1)N1CC2(CCOCC2)C1 [Example 138] | 0.043 nM
41 | O=C(c1cnc(NC2(c3cncnc3)CC2)nc1)N1CCC2(CCCO2)CC1 [Example 56] | 24.9 nM
42 | O=C(c1cnc(NCc2cnccn2)nc1)N1CCN2C[C@H](O)C[C@H]2C1 [Example 111] | 3590 nM
43 | Cc1ccc(C2(Nc3ncc(C(=O)N4CCC5(CCOCC5)C4)cn3)CC2)cn1 [Example 175] | 0.24 nM
44 | N#CCC1CCCCN1C(=O)c1cnc(NCc2cccnc2)nc1 (stereo not drawn) [Example 14] | 156 nM
45 | O=C(c1cnc(NCc2cccnc2)nc1)N1C[C@@H]2[C@@H](CO)[C@@H]2C1 [Example 18] | 385 nM
46 | O=C(c1cnc(NCc2cccnc2)nc1)N1CCC(O)C1 (stereo not drawn) [Example 25] | 1040 nM
47 | CC(C)(O)C1CCN(C(=O)c2cnc(NC3(c4cncnc4)CC3)nc2)CC1 [Example 78] | 1600 nM
48 | O=C(c1cnc(NCc2cccnc2)nc1)N1CCC(CO)C1 (stereo not drawn) [Example 11] | 81.7 nM
49 | O=C(c1cnc(NC2(c3cncnc3)CC2)nc1)N1CCCC[C@H]1CO [Example 45] | 1850 nM
50 | O=C(c1cnc(NC2(c3cncnc3)CC2)nc1)N1CCOCC1 [Example 109] | 249 nM
51 | O=C(c1cnc(NCc2cccnc2)nc1)N1CC2(CCOCC2)C1 [Example 2] | 1.33 nM
52 | NC(=O)C1CCN(C(=O)c2cnc(NCc3cccnc3)nc2)CC1 [Example 29] | 1920 nM

Row | SMILES | IC50
53 | CO[C@@H]1[C@@H]2CC[C@H]1CN(C(=O)c1cnc(NCc3cccnc3)nc1)C2 [Example 12] | 94.1 nM
54 | O=C(c1cnc(NC2(c3cncnc3)CC2)nc1)N1CCCC2(CCCC[C@H]2O)C1 (stereo partly drawn) [Example 100] | 135 nM
55 | C[C@H](Nc1ncc(C(=O)N2CCC3(CN(C)C3)C2)cn1)c1cnccn1 [Example 122] | 43.9 nM
56 | C[C@H](Nc1ncc(C(=O)N2CC[C@@H](N3CCOCC3)C2)cn1)c1cnccn1 [Example 120] | 84.1 nM
57 | CO[C@@H]1CCN(C(=O)c2cnc(NC3(c4cncnc4)CC3)nc2)C1 [Example 79] | 21.3 nM
58 | O=C(c1cnc(NCc2cnccn2)nc1)N1CCN2CCC[C@@H]2C1 [Example 128] | 384 nM
59 | Cc1ncc(CNc2ncc(C(=O)N3CC4(CCOCC4)C3)cn2)cn1 [Example 171] | 7.33 nM
60 | O=C(c1cnc(NCc2cnccn2)nc1)N1CCN2CC(F)(F)C[C@H]2C1 [Example 116] | 113 nM
61 | O=C(c1cnc(NC2(c3ncccn3)CC2)nc1)N1CCC2(CCOCC2)C1 [Example 178] | 2.18 nM
62 | Cc1cc(C2CCN(C(=O)c3cnc(NC4(c5cncnc5)CC4)nc3)C2)[nH]n1 (stereo not drawn) [Example 65] | 1.82 nM
63 | CN1CC2(CCN(C(=O)c3cnc(NCc4cnccn4)nc3)C2)C1 [Example 119] | 1370 nM
64 | CCN1CCC2(CCN(C(=O)c3cnc(N[C@@H](C)c4cnccn4)nc3)C2)C1 (stereo partly drawn) [Example 117] | 5.11 nM
65 | Cc1ccc([C@@H](C)Nc2ncc(C(=O)N3CCC4(CCOCC4)C3)cn2)cn1 [Example 141] | 87.3 nM
66 | O=C(c1cnc(NCc2cccnc2)nc1)N1CC2CCC(CC2)C1 [Example 27] | 1370 nM
67 | O=C(c1cnc(NC2(c3cncnc3)CC2)nc1)N1CCCC[C@H]1CCO [Example 80] | 545 nM
68 | O=C(c1cnc(NCc2cnccn2)nc1)N1C[C@H](O)[C@@H](N2CCOCC2)C1 [Example 115] | 16000 nM
69 | N#CC1CCCN(C(=O)c2cnc(NC3(c4cncnc4)CC3)nc2)C1 (single isomer, unassigned) [Example 197] | 5.22 nM
70 | CCC1(CO)CCN(C(=O)c2cnc(NC3(c4cncnc4)CC3)nc2)C1 (single isomer, unassigned) [Example 201] | 0.582 nM
71 | Cc1ncc(C(C)Nc2ncc(C(=O)N3CCC4(CCOCC4)C3)cn2)cn1 (stereo not drawn) [Example 159] | 1.29 nM
72 | O=C(c1cnc(NC2(c3cncnc3)CC2)nc1)N1CCC(C(F)F)CC1 [Example 81] | 102 nM
73 | C[C@@H]1CN(C(=O)c2cnc(NC3(c4cncnc4)CC3)nc2)[C@H](C)CO1 [Example 58] | 116 nM
74 | CS(=O)(=O)C1CCCN(C(=O)c2cnc(NC3(c4cncnc4)CC3)nc2)C1 (stereo not drawn) [Example 198] | 20.5 nM
75 | C[C@H]1C[C@@H](O)CN(C(=O)c2cnc(NC3(c4cncnc4)CC3)nc2)C1 [Example 86] | 24.2 nM
76 | O=C(c1cnc(NC2(c3ccccn3)CC2)nc1)N1CCC2(CCOCC2)C1 [Example 177] | 0.551 nM
77 | Cc1cnc(C(C)(C)Nc2ncc(C(=O)N3CC4(CCOCC4)C3)cn2)cn1 [Example 180] | 0.196 nM
78 | CC1CC2(CCN(C(=O)c3cnc(NC4(c5cncnc5)CC4)nc3)C2)CC(C)O1 (stereo not drawn) [Example 54] | 0.283 nM
